According to patent US20120329158A1, “Methods of Plant Regeneration and Apparatus Therefor” (priority 2010, published 2012):

System: sugarcane artificial seeds (Q208 and KQ228)
Assay: Germination and conversion of sugarcane artificial seeds into plantlets in liquid MS medium with or without auxins
Details: MS medium supplemented with small amounts of auxin; varieties Q208 and KQ228 (FIG. 34)
Method: Thirty-six artificial plant seeds (approx 15 mL) were placed into a sterile 250 mL Erlenmeyer flask with 85 mL of sterile MS liquid with 30 gL^−1 sucrose. Flasks were placed on the gyratory shaker trays at 120 rpm, 27° C.±1° C., and a 16 h photoperiod provided by cool white fluorescent tubes for 2-3 weeks. The media was decanted off and replaced every 3-4 days.
In this medium the artificial plant seeds germinated and produced normal plantlets within 3 weeks (FIG. 5). The seeds change from a transparent gel bead to a brown-black colour within the first few days of being placed into liquid culture. Within 7-10 days there is shoot production from the seeds and within two weeks the shoots are elongating and root production outside of the artificial plant seed begins. Within 3 weeks the plantlet has fully developed, with both extensive shoot and root production, outside of the gel. Variations in the rate of plantlet emergence are to be expected with different genotypes (FIG. 6 and FIG. 7). Typical growth conditions for liquid culture are 120 rpm and 27° C. with a 16 hour photoperiod.
In general, plantlets produced with growth regulators were stunted if hormone levels were 1 μM compared to those obtained from growth regulator-tee MS medium. As such, MS is typically used for the liquid culture medium. Regeneration of artificial plant seeds into plantlets at a rate of 70-90% is achievable. […]

SMILES	conversion of artificial seeds to plantlets
O=C(O)CCCc1c[nH]c2ccccc12 [indole-3 butyric acid (IBA), indole-3-butyric acid]	improved conversion of seeds to plantlets
O=C(O)Cc1cccc2ccccc12 [α-naphthaleneacetic acid (NAA), α-naphthaleneacetic acid]	improved conversion of seeds to plantlets
